Melting point data for 25 compounds are collected here from patent US6949542B2, “Dihydro-benzo[b][1,4]diazepin-2-one derivatives” (Hoffman-La Roche Inc., priority 2002, dated 2005).

Regarding `Cc1cc(-c2cccc(C3=Nc4ccccc4NC(=O)C3)c2)ccn1` [Example 71, 4-[3-(2-Methyl-pyridin-4-yl)-phenyl]-1,3-dihydro-benzo[b][1,4]diazepin-2-one], the melting point amounted to 192 °C.
To `Cc1cc(-c2cccc(C3=Nc4ccc(Cl)cc4NC(=O)C3)c2)ccn1` [Example 74, 8-Chloro-4-[3-(2-methyl-pyridin-4-yl)-phenyl]-1,3-dihydro-benzo[b][1,4]diazepin-2-one] belongs 215 °C.
The compound `Cc1cc(-c2cccc(C3=Nc4cc(NCC(C)C)c(Cl)cc4NC(=O)C3)c2)ccn1` [Example 79, 8-Chloro-7-isobutylamino-4-[3-(2-methyl-pyridin-4-yl)-phenyl]-1,3-dihydro-benzo[b][1,4]diazepin-2-one] had a melting point of 220 °C.
On to `CCCN(C)c1cc2c(cc1C(F)(F)F)NC(=O)CC(c1cccc(-c3ccncc3)c1)=N2` [Example 81, 7-(Methyl-propyl-amino)-4-(3-pyridin-4-yl-phenyl)-8-trifluoromethyl-1,3-dihydro-benzo[b][1,4]diazepin-2-one], for which the melting point is 192 °C.
`Cc1cc(-c2cccc(C3=Nc4cc(Cl)c(C(F)(F)F)cc4NC(=O)C3)c2)ccn1` [Example 82, 7-Chloro-4-[3-(2-methyl-pyridin-4-yl)-phenyl]-8-trifluoromethyl-1,3-dihydro benzo[b][1,4]diazepin-2-one]: the melting point came out at 221 °C.
To `CN(C)c1cc2c(cc1C(F)(F)F)NC(=O)CC(c1cccc(-c3cncnc3)c1)=N2` [Example 85, 7-Dimethylamino-4-(3-pyrimidin-5-yl-phenyl)-8-trifluoromethyl-1,3-dihydro-benzo[b][1,4]diazepin-2-one] belongs 200 °C.
Consider `Cc1cc2c(cc1Cl)NC(=O)CC(c1cccc(-c3cnccn3)c1)=N2` [Example 86, 8-Chloro-7-methyl-4-(3-pyrazin-2-yl-phenyl)-1,3-dihydro-benzo[b][1,4]diazepin-2-one], for which the melting point was 232 °C.
In the case of `O=C1CC(c2cccc(-c3cnccn3)c2)=Nc2cc(Cl)c(Cl)cc2N1` [Example 88, 7,8-Dichloro-4-(3-pyrazin-2-yl-phenyl)-1,3-dihydro-benzo[b][1,4]diazepin-2-one], the melting point was found to be 268 °C.
`O=C1CC(c2cccc(-c3cnccn3)c2)=Nc2ccc(C(F)(F)F)cc2N1` [Example 89, 4-(3-Pyrazin-2-yl-phenyl)-8-trifluoromethyl-1,3-dihydro-benzo[b][1,4]diazepin-2-one] registered a melting point of 223 °C.
As for `CN(C)c1cc2c(cc1C(F)(F)F)NC(=O)CC(c1cccc(-c3cnccn3)c1)=N2` [Example 90, 7-Dimethylamino-4-(3-pyrazin-2-yl-phenyl)-8-trifluoromethyl-1,3-dihydro-benzo[b][1,4]diazepin-2-one], the melting point amounted to 204 °C.
Take `O=C1CC(c2cccc(-c3cnccn3)c2)=Nc2cc(Cl)c(C(F)(F)F)cc2N1` [Example 91, 7-Chloro-4-(3-pyrazin-2-yl-phenyl)-8-trifluoromethyl-1,3-dihydro-benzo[b][1,4]diazepin-2-one]: the melting point turned out to be 235 °C.
For `O=C1CC(c2cccc(-c3cnccn3)c2)=Nc2ccc(-c3ccccc3F)cc2N1` [Example 92, 8-(2-Fluoro-phenyl)-4-(3-pyrazin-2-yl-phenyl)-1,3-dihydro-benzo[b][1,4]diazepin-2-one], the melting point turned out to be 241 °C.
With `Cc1cc2c(cc1C(F)(F)F)N=C(c1cccc(-c3cnccn3)c1)CC(=O)N2` [Example 93, 8-Methyl-4-(3-pyrazin-2-yl-phenyl)-7-trifluoromethyl-1,3-dihydro-benzo[b][1,4]diazepin-2-one], the melting point was found to be 216 °C.
In the case of `O=C1CC(c2cccc(-c3cncnc3)c2)=Nc2ccc(Cl)cc2N1` [Example 94, 8-Chloro-4-(3-pyrimidin-5-yl-phenyl)-1,3-dihydro-benzo[b][1,4]diazepin-2-one], the melting point is 234 °C.
To `O=C1CC(c2cccc(-c3cncnc3)c2)=Nc2cc(Cl)c(C(F)(F)F)cc2N1` [Example 95, 7-Chloro-4-(3-pyrimidin-5-yl-phenyl)-8-trifluoromethyl-1,3-dihydro-benzo[b][1,4]diazepin-2-one] belongs 222 °C; to `CC(C)CNc1cc2c(cc1Cl)NC(=O)CC(c1cccc(-c3cncnc3)c1)=N2` [Example 96, 8-Chloro-7-isobutylamino-4-(3-pyrimidin-5-yl-phenyl)-1,3-dihydro-benzo[b][1,4]diazepin-2-one], 241 °C.
On to `CCCN(C)c1cc2c(cc1C(F)(F)F)NC(=O)CC(c1cccc(-c3cncnc3)c1)=N2` [Example 99, 7-(Methyl-propyl-amino)-4-(3-pyrimidin-5-yl-phenyl)-8-trifluoromethyl-1,3-dihydro-benzo[b][1,4]diazepin-2-one], for which the melting point was 197 °C.
The figure for `O=C1CC(c2cccc(-c3ccncc3)c2)=Nc2cc(C(F)(F)F)c(Cl)cc2N1` [Example 100, 8-Chloro-4-(3-pyridin-4-yl-phenyl)-7-trifluoromethyl-1,3-dihydro-benzo[b][1,4]diazepin-2-one] is 200 °C; for `CCCN(C)c1cc2c(cc1C(F)(F)F)NC(=O)CC(c1cccc(-c3cnccn3)c1)=N2` [Example 102, 7-(Methyl-propyl-amino)-4-(3-pyrazin-2-yl-phenyl)-8-trifluoromethyl-1,3-dihydro-benzo[b][1,4]diazepin-2-one] it is 201 °C.
To `Cc1cc2c(cc1Cl)N=C(c1cccc(-c3cnccn3)c1)CC(=O)N2` [Example 103, 7-Chloro-8-methyl-4-(3-pyrazin-2-yl-phenyl)-1,3-dihydro-benzo[b][1,4]diazepin-2-one] belongs 218 °C; to `Cc1cc2c(cc1C(F)(F)F)N=C(c1cccc(-c3cncnc3)c1)CC(=O)N2` [Example 106, 8-Methyl-4-(3-pyrimidin-5-yl-phenyl)-7-trifluoromethyl-1,3-dihydro-benzo[b][1,4]diazepin-2-one], 238 °C.
On to `O=C1CC(c2cccc(-c3ccccn3)c2)=Nc2cc(C(F)(F)F)c(Cl)cc2N1` [Example 107, 8-Chloro-4-(3-pyridin-2-yl-phenyl)-7-trifluoromethyl-1,3-dihydro-benzo[b][1,4]diazepin-2-one], for which the melting point came to 208 °C.
`Cc1cc(-c2cccc(C3=Nc4ccc(-n5cccc5)cc4NC(=O)C3)c2)ccn1` [Example 108, 4-[3-(2-Methyl-pyridin-4-yl)-phenyl]-8-pyrrol-1-yl-1,3-dihydro-benzo[b][1,4]diazepin-2-one]: the melting point came out at 206 °C.
The figure for `O=C1CC(c2cccc(-c3cnccn3)c2)=Nc2cc(C(F)(F)F)c(Cl)cc2N1` [Example 110, 8-Chloro-4-(3-pyrazin-2-yl-phenyl)-7-trifluoromethyl-1,3-dihydro-benzo[b][1,4]diazepin-2-one] is 214 °C; for `O=C1CC(c2cccc(-c3cncnc3)c2)=Nc2cc(C(F)(F)F)c(Cl)cc2N1` [Example 111, 8-Chloro-4-(3-pyrimidin-5-yl-phenyl)-7-trifluoromethyl-1,3-dihydro-benzo[b][1,4]diazepin-2-one] it is 217 °C.

By melting point is commonly meant the temperature of the solid-liquid transition.
